Measurements: patent US20250382631A1, “PROTAC-CID SYSTEMS FOR USE IN MULTIPLEX GENE REGULATION” (William Marsh Rice University, priority 2022, published 2025)
Where two headings read alike, the source gives them in different places.

Test system: pUAS-1-driven EYFP expression in HEK293T cells transfected with GAL4- and VPR-fused PROTAC target protein / E3 ubiquitin ligase
Test: PROTAC-CID inducible EYFP gene activation, flow cytometry
Type: cell-based, human
Conditions: for Bottom (best-fit value) / Span (best-fit value) / Top (best-fit value): Table 4 nonlinear regression of EYFP activation; for Bottom (best-fit value) / Span (best-fit value) / Top (best-fit value) / Hillslope (best-fit value) / logEC50 (best-fit value) / EC50: FIG. 13A
Method: Fluorescence assay using flow cytometry analysis. Cells were treated with 0.05% Trpsin EDTA (Thermo Fisher Scientific no. 25300054) or TrypLE (Thermo Fisher Scientific no. 12605028) after transfection and centrifuged at 3000 g for 5 min. Supernatant was removed and the cell pellet was resuspended with 200 μL phosphate buffered saline (PBS) without calcium and magnesium (Thermo Fisher Scientific no. 10010023). Cells were transferred into 12×75 mm flow tubes (Global Scientific no. 110410). Cells were analyzed by MA900 flow cytometry (SONY). 405 nm laser (FL6 filter) was used for testing the BFP channel. 488 nm (FL1 filter) was used for testing the EYFP and GFP channel. Automated alignment using Automatic Setup Beads kit (SONY no. LE-B3001) is performed before running samples. In FIGS. 3A, 3B, and 17, experiments were performed under 2% FSC, 17% BSC, 24% FL1. In FIG. 18, experiments were performed under 2% FSC, 17% BSC, 27% FL1. All the other experiments were performed under 2% FSC, 17% BSC, 24% FL1 and 27% FL6. Flow cytometry data was processed and analyzed by FlowJo 10. Events were first gated with forward scatter-Area (FSC-A) and side scatter-Area (SSC-A) to select viable cells and remove the debris and dead cells. Cells were further gated with FSC-A and FSC-Height (FSC-H) for selecting single cells. The mean intensity of the reporter fluorescent protein (BFP and EYFP) in viable and single cell populations were calculated by FlowJo 10 as the mean of FL6-A and FL1-A. When calculating the fold change of relative fluorescence units (RFU), the relative fluorescence units of EYFP was calculated by dividing the mean of fluorescence intensity of EYFP with the mean of BFP fluorescence intensity for normalization as the following formula: […]
Next, the mean of the normalized relative fluorescence units of induced group were divided by the value of control group for calculating the fold change as the following formula: […]
Transfection and microscopy. HEK293T cells (American Type Culture Collection, no. CRL-3216) were cultured with high-glucose Dulbecco's modified Eagle's medium (DMEM) (Thermo Fisher Scientific no. 10569044) with 10% fetal bovine serum (FBS) (Thermo Fisher Scientific no. 10437028) and 1×penicillin-streptomycin (Thermo Fisher Scientific no. 15140122) at 37° C. with 5% CO2. Except for the data in FIGS. 3C, 3E, and 3H, cells were plated into 96 well plate (Corning no. 3598) and transfected by Polyethyleneimine Max (PEI Max) (Polysciences no. 24765-1). 1.5 μL PEI Max (1 mg/mL, pH=7.1) and 100 μl DMEM were mixed with plasmids to be slowly dropped into the cell medium after 30 mins of incubation. Medium was changed 12 hours post-transfection. The inductive small molecules, including Rapamycin (STEM CELL technologies no. 73362), dTAG-13 (TOCRIS no. 6605/5), dTAG^V-1 (TOCRIS no. 6744-5), dBRD9 (TOCRIS no. 6606/5), dTRIM24 (TOCRIS no. 6607/5), MZ1 (TOCRIS no. 6154/5), AT1 (TOCRIS no. 6356/5), TL13-12 (TOCRIS no. 6744/5), TL13-112 (TOCRIS no. 6745/5), dTAG-7 (TOCRIS no. 69125), ZXH3-26 (TOCRIS no. 6713/5) and ABA (GoldBio no. A-050-100), dissolved in Dimethyl sulfoxide (DMSO) (Sigma, no. D8418) were added. For the microscopy observation, the images were taken by Microscopy EVOS (Life Technologies) and processed by ImageJ (Schneider et al., 2012). If not otherwise noted, 60 ng of each plasmid were used for each sample.
Step-by-step fluorescence protein activation assay protocol. Reagents: • 1. PEI Max (Polysciences no. 24765-1) • 2. DMEM, high glucose, GlutaMAX™ Supplement, pyruvate (Thermo Fisher Scientific no. 10569044) • 3. Penicillin-Streptomycin (10,000 U/mL) (Thermo Fisher Scientific no. 15140122) • 4. Fetal Bovine Serum 500ML (FBS) (Thermo Fisher Scientific no. 10437028) • 5. TrypLE™ Express Enzyme (1×), phenol red (Thermo Fisher Scientific no. 12605068) • 6. PBS pH=7.4 (Thermo Fisher Scientific no. 10010023) • 7. Sony sorting chip […] for MA900 (SONY no. LE-C3210) • 8. Automatic Setup Beads kit (SONY no. LE-B3001) • 9. […]

[1] = Table 4 nonlinear regression, Prism 9 [Agonist] vs. response variable slope (four parameters), no unit in table (the source gives nM), read-out: EC50 (best-fit value)
[2] = dose-response, read-out: EC50 for gene activation

Row | Compound | grades of EYFP intensity (HEK293T transfected with GAL4-VHL, TRIM24^BD-VPR, BRD4^BD2-VPR and reporter plasmid, FIG. 2E: dTRIM24, MZ1 100 nM) | Bottom (best-fit value) | Span (best-fit value) | Top (best-fit value) | Hillslope (best-fit value) (Table 4 nonlinear regression) | logEC50 (best-fit value) (Table 4 nonlinear regression) | EC50 [1] | EC50 [2]
1 | Cc1ncsc1-c1ccc(CNC(=O)[C@@H]2C[C@@H](O)CN2C(=O)[C@@H](NC(=O)COCCOCCOCCNC(=O)C[C@@H]2N=C(c3ccc(Cl)cc3)c3c(sc(C)c3C)-n3c(C)nnc32)C(C)(C)C)cc1 [MZ1] | 13 fold | 1.416 | 319.6 | 321 | 1.728 | 1.51 | 32.4 nM | 32 nM
2 | CC[C@H](C(=O)N1CCCC[C@H]1C(=O)O[C@H](CCc1ccc(OC)c(OC)c1)c1ccccc1OCC(=O)NCCCCCCOc1cccc2c1C(=O)N(C1CCC(=O)NC1=O)C2=O)c1cc(OC)c(OC)c(OC)c1 (stereo partly drawn) [dTAG-13] | – | 2.581 | 135.7 | 138.3 | 3.384 | 1.724 | 53 nM | 53 nM
